Results taken from patent US10054583B2, “Nuclear factor-erythroid 2 related factor 2 (NRF2) biosensors and modulators of NRF2” (TEMPLE UNIVERSITY OF THE COMMONWEALTH SYSTEM OF HIGHER …, priority 2012, dated 2018).
“Also recorded” adds a separate entry of the source.

Key:
Format in all cases: cell-based
[1] = test system: Nrf2 translation (entire Nrf2 ORF mRNA); test: Western blot of Nrf2 translation in HEK 293T cells transfected with Nrf2 construct lacking amino acids 17-32; conditions: for Nrf2 translation (Nrf2 protein expression by blot): FIG. 3C / FIG. 4, HEK 293T cells, Nrf2 construct lacking amino acids 17-32 (no Keap1-mediated degradation)
Description: (§1) FIGS. 3A to 3D show the construction of a translation reporter system to identify compounds that derepress Nrf2 translation. FIG. 3A is a schematic representation showing that the sequence of the firefly luciferase reporter gene was fused with the Seg3 fragment to create a translation reporter system i.e. a biosensor for Nrf2. […] A small library of 127 compounds containing more than 80 known antioxidants was screened to identify potential activators of Nrf2 translation. […] HEK 293T cells were transfected with a construct a Nrf2 lacking amino acids 17-32 to prevent the degradation mediated by Keap1.
HEK293T cells were transfected with an Nrf2 construct lacking amino acids that are required for KEAP1 mediated degradation. 24 hours later the cells were treated with Apigenin in incremental doses to evaluate Nrf2 translation activation by using Western blotting.

[2] = test system: translation of Luciferase Reporter under translational control mediated by Sg3 of Nrf2; test: Nrf2 translation biosensor screen: firefly luciferase reporter fused with Seg3, stop codons in between; library of 127 compounds; conditions: FIG. 3B; screen of library of 127 compounds
Description: as §1
A construct containing the luciferase gene fused with the Seg3 with stop codons in between the two fragments was developed. A library of 127 well known antioxidants was screened.
A stop codon is indicated with bold letters and a dark grey shade. The sequence corresponding to sg3 is indicated in the light grey shade area. The sequence was expressed using a plasmid with a CMV promoter.

[3] = test system: Nrf2; test: Nuclear translocation of Nrf2: subcellular fractionation and Western blot of HEK293T cells transfected with wildtype Nrf2; conditions: FIG. 6; HEK293T cells with wildtype Nrf2, harvested 12 hours after treatment, cytoplasm vs nucleus
Method: HEK293T cells were transfected with a plasmid containing the wildtype sequence of Nrf2. After 24 hours the cells were treated with Apigenin. After additional 12 hours, the cells were harvested and subjected to subcellular fractionation. The presence of Nrf2 in the cytoplasm and nucleus was evaluated using Western blotting. Additionally, tubulin and histone 3 were identified by Western blot to validate the subcellular fractionation.

Compound | Nrf2 translation (Nrf2 protein expression by blot) [1] | translation of the Luciferase Reporter under translational control mediated by Sg3 [2] | nuclear translocation of Nrf2 [3] | Nrf2 translation (Nrf2 protein expression by blot) ([1]; listed as apigenin) | Nrf2 translation activation, dose dependence ([1]; FIG. 5, HEK293T cells, treated 24 hours after transfection with incremental doses, Western blotting)
C[S+]([O-])CCCCN=C=S (centres unmarked) [sulforaphane] | no effect | – | – | – | –
O=c1cc(-c2ccc(O)cc2)oc2cc(O)cc(O)c12 [Apigenin] | potent activator of NRF2 translation | promoted the translation of Nrf2; also recorded: increased the translation | nuclear translocation of Nrf2 | potent inducers of Nrf2 translation; also recorded: most potent inducer of Nrf2 translation | activates Nrf2 translation in a dose-dependent manner
O=c1c(O)c(-c2ccc(O)c(O)c2)oc2cc(O)cc(O)c12 [quercetin] | increase the translation of Nrf2 | – | – | – | –
Oc1ccc(C=Cc2cc(O)cc(O)c2)cc1 [resveratrol] | potent inducers of Nrf2 translation | promoted the translation of Nrf2; also recorded: increased the translation | – | – | –
CC(C)(C)c1cc(O)ccc1O [TBHQ] | no effect | – | – | – | –
O=c1cc(-c2ccc(O)c(O)c2)oc2cc(O)cc(O)c12 [luteolin] | increase the translation of Nrf2 | – | – | – | –
